Assay results from PMC12332266 (Frontiers in Pharmacology, 2025).
“Also recorded” adds a separate entry of the source. Read-outs that look alike come from different tables or passages of the source. One block for each molecule: values may come before it.

Assays:
[1] = test system: hiPSC-CM (iCell Cardiomyocytes^2); test: miRNA in hiPSC-CM culture media by RT-qPCR at 24, 48 and 72 h post-treatment;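 further: medium RNA quantified by RT-qPCR, CT-values normalized to housekeeping miRNAs, compared against DMSO control, doses chosen from the MEC for CI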
Description: (§1) To extract total RNA from the culture media, hiPSC-CM were plated on 24-well plates by seeding 275,000 cells per mL per well. hiPSC-CM were maintained for 7 days in 200 µL of iCell^2 Maintenance Medium (iCell^2 MM; FCDI) for the 48-well ePlate and in 1 mL for 24-well plate, before drug treatment. Culture media change was performed every 2 days.
(§2) Stock solutions were diluted 1:1000 in iCell^2 MM before treatment and equilibrated at 37°C. As vehicle control, DMSO 0.1% was added to the media. Drug treatments on biological replicates (n = 3) were refreshed daily, and culture media was collected for further miRNA analysis. After 72 h, cell pellets were collected and stored at −80°C until total RNA extraction.
(§3) hiPSC-CM culture media was collected daily from 24-well plates, and centrifuged (+4°C, 11,000 rpm) for 5 min to remove cellular debris/cells. Total RNA was extracted from 300 µL of supernatant by Trizol/Chloroform phase separation and purification of total RNA by miRNeasy 96 Kit (Qiagen, Hilden, Germany). The spike-in control cel-miR-39 (Qiagen, Hilden, Germany) was used to check the quality of samples and PCR efficiency. DNase treatment (RNase-Free DNase Set (Qiagen, Hilden, Germany)) was applied according to the manufacturer’s instructions. After the RNA extraction, the same RT-qPCR protocol as for hiPSC-CM lysate was followed. Multiple unpaired t-tests were performed to compare delta CT-values (CT-values normalized to the housekeeping miRNAs) of the treatment groups to the DMSO control.
(§4) Analysis of miRNA in the culture media of hiPSC-CM treated with structural cardiotoxicants was performed at 24-, 48- and 72-hour post-treatment. […] The treatment concentrations were selected based on the MEC for CI to ensure that the preliminary evidence of cardiotoxicity in hiPSC-CMs could potentially lead to miRNA release in the culture media.

[2] = ref extensive literature search, cited from earlier work
[3] = test system: hiPSC-CM (iCell Cardiomyocytes^2); test: Intracellular miRNA expression by RT-qPCR in hiPSC-CM pellets after 72-hour treatment; settings: for fold induction at 0.1 µM / fold induction at 0.3 µM / fold induction at 3 µM / fold induction at 10 µM: Homo sapiens
In short: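 After 72-hour treatment and RTCA CardioECR assessment, total RNA from hiPSC-CM pellets was reverse transcribed, pre-amplified and quantified by TaqMan RT-qPCR against a 17-miRNA panel. Triplicates were pooled, so no statistical analysis was performed.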

[4] = test system: hiPSC-CM (iCell Cardiomyocytes^2); test: RTCA CardioECR assessment (impedance and electrophysiology parameters)
In short: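 iCell^2 cardiomyocytes on fibronectin-coated ePlates monitored continuously by impedance for cell index, beating rate and amplitude. Field potential duration and spike amplitude were recorded from day 4–6 after monolayer formation. Data were double-normalized to DMSO control and baseline, with variability given as SD.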

[5] = test system: hiPSC-CM (iCell Cardiomyocytes^2); settings: human
Description: as §1, §2, §3, §4

[6] = 72 h, read-out: hsa-miR-7-5p fold change
[7] = 72 h, read-out: hsa-miR-29a-5p fold change
[8] = 72 h, read-out: hsa-miR-126-3p fold change
[9] = 72 h, read-out: hsa-miR-133b fold change
[10] = 72 h, read-out: hsa-miR-146b-5p fold change
[11] = 72 h, read-out: hsa-miR-182-5p fold change
[12] = 72 h, read-out: hsa-miR-185-3p fold change
[13] = 72 h, read-out: hsa-miR-187-3p fold change
[14] = 72 h, read-out: hsa-miR-208b-3p fold change
[15] = 72 h, read-out: hsa-miR-365a-5p fold change

- miRNAs hiPSC-CM pellet, MEC overall [3]: 0.03 µM
- miRNAs upregulated at the MEC overall (hiPSC-CM pellet) [3]: miR-34a-5p, miR-146b-5p, miR-187-3p
- RTCA, MEC (CI) ([4]; hiPSC-CM, change ≥20%, Table 2): 0.1 µM (CI)
- Contractility Amplitude MEC ([4]; human, 72 h): 0.1 µM
- Spike Amplitude (SA) MEC ([4]; human, 72 h): 0.01 µM
Compound: COc1cccc2c1C(=O)c1c(O)c3c(c(O)c1C2=O)C[C@@](O)(C(=O)CO)C[C@@H]3O[C@H]1C[C@H](N)[C@H](O)[C@H](C)O1 [Doxorubicin]
- hsa-miR-133b in culture media, in words ([1]; 24, 48, 72 h, doxorubicin 0.1 μM, arsenic trioxide 0.48 μM, milrinone 3 μM, vincristine 0.3 μM, vinblastine 0.3 μM, erlotinib 7.7 μM): upregulation was detected only after 72 h of treatment; also recorded: significant upregulation was observed only after 72-hour treatment
- hsa-miR-187-3p in culture media, in words ([1]; doxorubicin 0.1 μM, vinblastine 0.3 μM): detected in the culture media only following 72-hour exposure
- Cmax total ([2]; Supplementary Table 1): 1600 nM
- Cmax total ([2]; Table 1): 1600 nM
- intracellular miRNA upregulation in hiPSC-CM, in words [3]: lowest upregulation of miRNAs was detected at the highest concentration tested

Compound: Cc1[nH]c(=O)c(C#N)cc1-c1ccncc1 [Milrinone]
- hsa-miR-126-3p fold change, culture media ([1]; 3 µM, 24h): 3.9
- hsa-miR-208b-3p fold change, culture media ([1]; 3 µM, 24h): 6.0
- hsa-miR-[…] change, culture media ([1]; 3 µM, 24h): 3.5
- hsa-miR-133b fold change, culture media ([1]; 3 µM, 48h): 0.8
- hsa-miR-208b-3p fold change, culture media ([1]; 3 µM, 48h): 2.8
- hsa-miR-[…] change, culture media ([1]; 3 µM, 48h): 1.4
- hsa-miR-7-5p fold change, culture media ([1]; 3 µM, 72 h): 9.1
- hsa-miR-126-3p fold change, culture media ([1]; 3 µM, 72 h): 2.5
- hsa-miR-133b fold change, culture media ([1]; 3 µM, 72 h): 2.5
- hsa-miR-208b-3p fold change, culture media ([1]; 3 µM, 72 h): 0.6
- hsa-miR-[…] change, culture media ([1]; 3 µM, 72 h): 4.4
- miRNAs in culture media of hiPSC-CM, in words [5]: hsa-miR-7-5p and hsa-miR-126-3p, were upregulated after 72-hour exposure
- miRNAs in culture media of hiPSC-CM, in words ([5]; 3 µM): for hsa-miR-126-3p, upregulation was also observed after 24-hour treatment
- Cmax total ([2]; Supplementary Table 1): 620 to 1180 nM
- Cmax total ([2]; Table 1): 620 to 1180 nM
- miRNAs hiPSC-CM pellet, MEC overall [3]: 0.1 µM
- miRNAs upregulated at the MEC overall (hiPSC-CM pellet) [3]: miR-126-3p, miR-133b, miR-146b-5p
- fold induction at 0.1 µM [3, 6]: 1.1
- fold induction at 0.3 µM [3, 6]: 1.1
- fold induction at 3 µM [3, 6]: 0.5
- fold induction at 10 µM [3, 6]: 1.3
- fold induction at 0.1 µM [3, 7]: 0.6
- fold induction at 0.3 µM [3, 7]: 0.02
- fold induction at 10 µM [3, 7]: 0.3
- fold induction at 0.1 µM [3, 8]: 7.7
- fold induction at 0.3 µM [3, 8]: 5.9
- fold induction at 3 µM [3, 8]: 0.4
- fold induction at 10 µM [3, 8]: 1.7
- fold induction at 0.1 µM [3, 9]: 2.2
- fold induction at 0.3 µM [3, 9]: 2.6
- fold induction at 3 µM [3, 9]: 3.5
- fold induction at 10 µM [3, 9]: 2.5
- fold induction at 0.1 µM [3, 10]: 3.6
- fold induction at 0.3 µM [3, 10]: 19
- fold induction at 3 µM [3, 10]: 5
- fold induction at 10 µM [3, 10]: 3
- fold induction at 0.1 µM [3, 11]: 1.9
- fold induction at 0.3 µM [3, 11]: 1.6
- fold induction at 3 µM [3, 11]: 0.9
- fold induction at 10 µM [3, 11]: 1.3
- fold induction at 0.3 µM [3, 12]: 0.2
- fold induction at 3 µM [3, 12]: 16.3
- fold induction at 10 µM [3, 12]: 0.9
- fold induction at 0.3 µM [3, 13]: 3.7
- fold induction at 3 µM [3, 13]: 1.2
- fold induction at 10 µM [3, 13]: 3.3
- fold induction at 0.1 µM [3, 14]: 1.3
- fold induction at 0.3 µM [3, 14]: 1.8
- fold induction at 3 µM [3, 14]: 2.1
- fold induction at 10 µM [3, 14]: 2.4
- fold induction at 0.1 µM [3, 15]: 3.7
- fold induction at 0.3 µM [3, 15]: 4.9
- fold induction at 3 µM [3, 15]: 0.4
- fold induction at 10 µM [3, 15]: 1.1
- hsa-miR-7-5p fold change, intracellular ([3]; human, 72 h, 3 µM): 0.5
- hsa-miR-182-5p fold change, intracellular ([3]; human, 72 h, 3 µM): 0.9
- hsa-miR-185-3p fold change, intracellular ([3]; human, 72 h, 3 µM): 16.3
- hsa-miR-365a-5p fold change, intracellular ([3]; human, 72 h, 3 µM): 0.4
- Field Potential Duration MEC ([4]; human, 72 h): 0.3 µM
- Spike Amplitude (SA) MEC ([4]; human, 72 h): 0.1 µM
